# Measured values from US9034918B2, “Composition including at least one trans-cinnamaldehyde and the use thereof in the treatment of bacterial infections, specifically in the treatment of nosocomial infections” (SEPTEOS, priority 2009, dated 2015).
# Columns and labels:
# Assay in all cases: Antibiogram by diffusion technique (CA-SFM 2008)
# Format in all cases: cell-based
# [1] = test system: golden staph (S. aureus) strain 8147; design: D: unit not given here
# Excerpt: (§1) Three clinical categories were selected for interpretation of the in vitro sensitivity tests: sensitive (S), resistant (R) and intermediate (I). • The strains categorized S are those for which the probability of therapeutic success is high in the case of treatment by systemic route with the dosing schedule recommended in the summary of product characteristics (SPC) prepared by the French Health Products Safety Agency (AFSSAPS). • The strains categorized R are those for which there is a high probability of therapeutic failure regardless of treatment type and antibiotic dose. • The strains categorized I are those for which therapeutic success cannot be predicted. These strains form a heterogeneous group for which the results obtained in vitro are not predictive of therapeutic success. […] The intermediate category is also a buffer zone which takes into account technical and biological uncertainties.
# (§2) The sensitivity of strains to antibiotics was determined by a diffusion technique according to the 2008 recommendations by the Antibiogram Committee of the French Microbiology Society (CA-SFM).
# (§3) In terms of critical concentrations and diameters, strains are categorized as follows: • sensitive (S): strains for which the MIC of the antibiotic tested is less than or equal to the lower critical concentration c, which is equivalent to a diameter greater than or equal to the critical diameter D; • resistant (R): strains for which the MIC of the antibiotic tested are greater than the upper critical concentration C, corresponding to a diameter less than the critical diameter d; • intermediate sensitivity (I): strains for which the MIC of the antibiotic tested and the corresponding diameter are between the two critical concentrations and the two critical diameters.
# (§4) The tests were carried out on Mueller-Hinton agar. An inoculum adjusted to 0.5 on the McFarland scale is then diluted to 1/100. Petri dishes are inoculated by swabbing. The dishes are read after 24 hours of incubation at 37° C.
# (§5) The raw results are then interpreted according to the interpretative reading rules of the CA-SFM.
# [2] = test system: golden staph (S. aureus) strain 8239; design: D: unit not given here
# Excerpt: as §1, §2, §3, §4, §5
# [3] = test system: golden staph (S. aureus) strain 8240; design: D: unit not given here
# Excerpt: as §1, §2, §3, §4, §5
# Enterococcus strain 8152 = test system: Enterococcus strain 8152; design: Diameter: unit not given here
# Excerpt: as §1, §2, §3, §4, §5
# Enterococcus strain 8153 = test system: Enterococcus strain 8153; design: Diameter: unit not given here
# Excerpt: as §1, §2, §3, §4, §5
# E. coli ATCC 25922 = test system: E. coli ATCC 25922; design: Diameter (D): unit not given here
# Excerpt: Three clinical categories were selected for interpretation of the in vitro sensitivity tests: sensitive (S), resistant (R) and intermediate (I). • The strains categorized S are those for which the probability of therapeutic success is high in the case of treatment by systemic route with the dosing schedule recommended in the summary of product characteristics (SPC) prepared by the French Health Products Safety Agency ([…]). • The strains categorized R are those for which there is a high probability of therapeutic failure regardless of treatment type and antibiotic dose. • The strains categorized I are those for which therapeutic success cannot be predicted. These strains form a heterogeneous group for which the results obtained in vitro are not predictive of therapeutic success. […] The intermediate category is also a buffer zone which takes into account technical and biological uncertainties. The sensitivity of strains to antibiotics was determined by a diffusion technique according to the 2008 recommendations by the Antibiogram Committee of the French Microbiology Society (CA-SFM). In terms of critical concentrations and diameters, strains are categorized as follows: • sensitive (S): strains for which the MIC of the antibiotic tested is less than or equal to the lower critical concentration c, which is equivalent to a diameter greater than or equal to the critical diameter D; • resistant (R): strains for which the MIC of the antibiotic tested are greater than the upper critical concentration C, corresponding to a diameter less than the critical diameter d; • intermediate sensitivity (I): strains for which the MIC of the antibiotic tested and the corresponding diameter are between the two critical concentrations and the two critical diameters. The tests were carried out on Mueller-Hinton agar. An inoculum adjusted to 0.5 on the McFarland scale is then diluted to 1/100. Petri dishes are inoculated by swabbing. The dishes are read after 24 hours of incubation at 37° C. The raw results are then interpreted according to the interpretative reading rules of the CA-SFM. Two examples: all strains of methicillin-resistant Staphylococcus are resistant to all beta-lactams, and the same is true for gentamicin-resistant strains; golden staph is necessarily resistant to kanamycin (and amikacin) and tobramycin. The quality of the diffusion method is controlled using E. coli strain ATCC 25922.
# E. coli strain 8154 = test system: E. coli strain 8154; design: D: unit not given here
# Excerpt: as §1, §2, §3, §4, §5
# E. coli strain 8155 = test system: E. coli strain 8155; design: D: unit not given here
# Excerpt: as §1, §2, §3, §4, §5
# E. coli strain 8156 = test system: E. coli strain 8156; design: D: unit not given here
# Excerpt: as §1, §2, §3, §4, §5
# E. coli strain 8157 = test system: E. coli strain 8157; design: D: unit not given here
# Excerpt: as §1, §2, §3, §4, §5
# [4] = test system: Pseudomonas aeruginosa strain 8128; design: D: unit not given here
# Excerpt: as §1, §2, §3, §4, §5
# [5] = test system: Pseudomonas aeruginosa strain 8129; design: D: unit not given here
# Excerpt: as §1, §2, §3, §4, §5
# [6] = test system: Pseudomonas aeruginosa strain 8132; design: D: unit not given here
# Excerpt: as §1, §2, §3, §4, §5
# [7] = test system: Pseudomonas aeruginosa strain 8134; design: D: unit not given here
# Excerpt: as §1, §2, §3, §4, §5
# E. coli strain 9003 = test system: E. coli strain 9003
# Excerpt: as §1, §2, §3, §4, §5
# [8] = test system: Enterobacter aerogenes (9004); conditions: strain 9004
# Excerpt: as §1, §2, §3, §4, §5
# [9] = test system: strain 9007, Pseudomonas aeruginosa, with VIM-2 carbapenemase
# Excerpt: as §1, §2, §3, §4, §5
# [10] = test system: strain 9010, Acinetobacter baumannii, with VEB-1 ESBL
# Excerpt: as §1, §2, §3, §4, §5
compound,measurement,setting,value
Pristinamycin,Cat.,[1],S
same,D,[1],29
same,Cat.,[2],S
same,D,[2],32
same,Cat.,[3],S
same,D,[3],27
same,Category,Enterococcus strain 8152,S
same,Diameter,Enterococcus strain 8152,23
same,Category,Enterococcus strain 8153,S
same,Diameter,Enterococcus strain 8153,22
CC1(C)S[C@@H]2[C@H](NC(=O)[C@H](C(=O)O)c3ccsc3)C(=O)N2[C@H]1C(=O)O [Ticarcillin],Category (Cat.),E. coli ATCC 25922,S
same,Diameter (D),E. coli ATCC 25922,25
same,Cat.,E. coli strain 8154,R
same,D,E. coli strain 8154,0
same,Cat.,E. coli strain 8155,S
same,D,E. coli strain 8155,31
same,Cat.,E. coli strain 8156,S
same,D,E. coli strain 8156,28
same,Cat.,E. coli strain 8157,R
same,D,E. coli strain 8157,0
same,Cat.,[4],I
same,D,[4],21
same,Cat.,[5],R
same,D,[5],13
same,Cat.,[6],R
same,D,[6],12
same,Cat.,[7],S
same,D,[7],23
same,Category,E. coli strain 9003,R
same,Category,[8],R
same,Category,[9],R
same,Category,[10],R
NCC[C@H](O)C(=O)N[C@@H]1C[C@H](N)[C@@H](O[C@H]2O[C@H](CN)[C@@H](O)[C@H](O)[C@H]2O)[C@H](O)[C@H]1O[C@H]1O[C@H](CO)[C@@H](O)[C@H](N)[C@H]1O [Amikacin],Category,E. coli strain 9003,S
same,Category,[8],I
Bactrim,Category,E. coli strain 9003,S
same,Category,[8],R
C[C@@H](O)[C@H]1C(=O)N2C(C(=O)O)=C(S[C@@H]3CN[C@H](C(=O)Nc4cccc(C(=O)O)c4)C3)[C@H](C)[C@H]12 [Eratpenem],Category,E. coli strain 9003,S
same,Category,[8],S
C[C@@H](O)[C@H]1C(=O)N2C(C(=O)O)=C(SCCN=CN)C[C@H]12 [Imipenem],Category (Cat.),E. coli ATCC 25922,S
same,Diameter (D),E. coli ATCC 25922,34
same,Cat.,E. coli strain 8154,S
same,D,E. coli strain 8154,33
same,Cat.,E. coli strain 8155,S
same,D,E. coli strain 8155,34
same,Cat.,E. coli strain 8156,S
same,D,E. coli strain 8156,34
same,Cat.,E. coli strain 8157,I
same,D,E. coli strain 8157,20
same,Cat.,[4],I
same,D,[4],18
same,Cat.,[5],S
same,D,[5],36
same,Cat.,[6],R
same,D,[6],13
same,Cat.,[7],S
same,D,[7],26
same,Category,E. coli strain 9003,S
same,Category,[8],S
same,Category,[9],R
same,Category,[10],S
CC(C)(O/N=C(\C(=O)N[C@@H]1C(=O)N2C(C(=O)[O-])=C(C[n+]3ccccc3)CS[C@H]12)c1csc(N)n1)C(=O)O [Ceftazidime],Category (Cat.),E. coli ATCC 25922,S
same,Diameter (D),E. coli ATCC 25922,25
same,Cat.,E. coli strain 8154,S
same,D,E. coli strain 8154,30
same,Cat.,E. coli strain 8155,S
same,D,E. coli strain 8155,30
same,Cat.,E. coli strain 8156,S
same,D,E. coli strain 8156,33
same,Cat.,E. coli strain 8157,S
same,D,E. coli strain 8157,30
same,Cat.,[4],S
same,D,[4],25
same,Cat.,[5],R
same,D,[5],0
same,Cat.,[6],S
same,D,[6],26
same,Cat.,[7],S
same,D,[7],25
same,Category,E. coli strain 9003,R
same,Category,[8],R
same,Category,[9],S
same,Category,[10],R
CO/N=C(\C(=O)N[C@@H]1C(=O)N2C(C(=O)[O-])=C(C[N+]3(C)CCCC3)CS[C@H]12)c1csc(N)n1 [Cefepime],Category (Cat.),E. coli ATCC 25922,S
same,Diameter (D),E. coli ATCC 25922,25
same,Cat.,E. coli strain 8154,S
same,Cat.,E. coli strain 8155,S
same,Cat.,E. coli strain 8156,S
same,Cat.,E. coli strain 8157,S
same,Cat.,[4],S
same,Cat.,[5],S
same,Cat.,[6],S
same,Cat.,[7],S
same,Category,E. coli strain 9003,R
same,Category,[8],R
same,Category,[9],S
same,Category,[10],R
CC(=O)OCC1=C(C(=O)O)N2C(=O)[C@@H](NC(=O)Cc3cccs3)[C@H]2SC1 [Cefalotin],Category (Cat.),E. coli ATCC 25922,S
same,Diameter (D),E. coli ATCC 25922,20
same,Cat.,E. coli strain 8154,S
same,D,E. coli strain 8154,21
same,Cat.,E. coli strain 8155,S
same,D,E. coli strain 8155,21
same,Cat.,E. coli strain 8156,S
same,D,E. coli strain 8156,20
same,Cat.,E. coli strain 8157,S
same,D,E. coli strain 8157,19
same,Cat.,[4],R
same,D,[4],0
same,Cat.,[5],R
same,D,[5],0
same,Cat.,[6],R
same,D,[6],0
same,Cat.,[7],R
same,D,[7],0
same,Cat.,[1],R
same,D,[1],17
same,Cat.,[2],R
same,D,[2],17
same,Cat.,[3],R
same,D,[3],17
same,Category,E. coli strain 9003,R
same,Category,[8],R
same,Category,[9],R
same,Category,[10],R
CCn1cc(C(=O)O)c(=O)c2cc(F)c(N3CCNCC3)cc21 [Noroxin],Category,E. coli strain 9003,R
same,Category,[8],R
CO[C@@]1(NC(=O)Cc2cccs2)C(=O)N2C(C(=O)O)=C(COC(N)=O)CS[C@@H]21 [Cefoxitin],Category (Cat.),E. coli ATCC 25922,S
same,Diameter (D),E. coli ATCC 25922,24
same,Cat.,E. coli strain 8154,S
same,D,E. coli strain 8154,26
same,Cat.,E. coli strain 8155,S
same,D,E. coli strain 8155,25
same,Cat.,E. coli strain 8156,S
same,D,E. coli strain 8156,26
same,Cat.,E. coli strain 8157,S
same,D,E. coli strain 8157,30
same,Cat.,[4],R
same,D,[4],0
same,Cat.,[5],R
same,D,[5],0
same,Cat.,[6],R
same,D,[6],0
same,Cat.,[7],R
same,D,[7],0
same,Category,Enterococcus strain 8152,R
same,Diameter,Enterococcus strain 8152,0
same,Category,Enterococcus strain 8153,S
same,Diameter,Enterococcus strain 8153,25
same,Category,[9],R
same,Category,[10],R
Colimycin,Category,E. coli strain 9003,S
same,Category,[8],S
CO/N=C(\C(=O)N[C@@H]1C(=O)N2C(C(=O)O)=C(COC(C)=O)CS[C@H]12)c1csc(N)n1 [Cefotaxime],Category,E. coli strain 9003,R
same,Category,[8],R
CCn1cc(C(=O)O)c(=O)c2ccc(C)nc21 [Nalidixic acid],Category (Cat.),E. coli ATCC 25922,S
same,Diameter (D),E. coli ATCC 25922,28
same,Cat.,E. coli strain 8154,S
same,D,E. coli strain 8154,24
same,Cat.,E. coli strain 8155,S
same,D,E. coli strain 8155,28
same,Cat.,E. coli strain 8156,S
same,D,E. coli strain 8156,27
same,Cat.,E. coli strain 8157,R
same,D,E. coli strain 8157,0
same,Cat.,[4],R
same,D,[4],0
same,Cat.,[5],R
same,D,[5],0
same,Cat.,[6],R
same,D,[6],0
same,Cat.,[7],R
same,D,[7],0
same,Category,[9],R
same,Category,[10],R
